Laboratory results: paper PMC9953561, “Five Post-Translational Modification Residues of CmPT2 Play Key Roles in Yeast and Rice” (International Journal of Molecular Sciences, 2023)

Tested on: CmPT2 (CmPht1;2)
Settings: labelled compound; H+ co-transporter; whole yeast cells; pH of uptake assay not stated

## O=P(O)(O)O [phosphate]
  Km: 65.7 µM
